Key:
[1] = biological target: FPTase (K-Ras substrate) (UniProt P29702+P49355); assay: in vitro FTase Inhibition Assay, K-Ras as substrate for farnesylation; type: biochemical; details: K-Ras used as substrate for farnesylation
Description: (§1) The ability of the compounds of this invention to inhibit FPTase was evaluated in the standard pharmacological in vitro test procedures described below.
(§2) Methods—1. […] 2. Solution #1 is added to FPTase reaction in a volume of […]. 3. Standard reaction mix, […], contains 50 mM Tris (7.5), […], 3 mM MgCl2, 20 mM KCl, 5 mM DTT, 0.2% octyl-B-glucoside, 1% DMSO, […], 10 ng FPTase, and various concentrations of FPTase inhibitors. 4. Incubate for 30-90 min at […] 5. Stop reactions with TCA/SDS (6%/2%), hold at 4° C. for 45-60 min. 6. Filter by manifold or 96 well plate, wash filter 3-5× with TCA (6%). 7. Add scintillant to filters, measure ^3H-FPP incorporation into Ras protein.
(§3) (cpm from precipitated Ras with test compounds)−(background cpm)×100=% inhibition.
(§4) (cpm from precipitated Ras without test compounds)−(background cpm)

[2] = biological target: FPTase (H-Ras substrate) (UniProt P29702+P49355); assay: in vitro FTase Inhibition Assay, H-Ras as substrate for farnesylation; type: biochemical; details: H-Ras used as substrate for farnesylation
Description: as §1, §2, §3, §4

Compound	IC50 [1]	IC50 [2]
5-[5-(4-Chloro-2-methylphenyl)pent-4-ynyl]-5-(4-trifluoromethoxy-benzenesulfonyl)thiazolidine-2,4-dione [Example 140]	1000 to 3600 nM	150 to 300 nM
O=C1NC(=O)C(CCCC#Cc2ccc(Cl)cc2)(Sc2ccc(F)cc2)S1 (stereo not shown) [Example 96, 5-[5-(4-Chlorophenyl)pent-4-ynyl]-5-(4-fluorophenylsulfanyl)-thiazolidine-2,4-dione]	–	700 nM
COc1ccc(S(=O)(=O)C2(CCCC#Cc3ccc(Cl)cc3)SC(=O)NC2=O)cc1 (stereo not shown) [Example 97, 5-[5-(4-Chlorophenyl)pent-4-ynyl]-5-(4-methoxyphenylsulfonyl)-thiazolidine-2,4-dione]	3500 to 5500 nM	75 to 150 nM
O=C1NC(=O)C(CCCC#Cc2ccc(Cl)cc2)(S(=O)(=O)c2ccc(Oc3ccccc3)cc2)S1 (stereo not shown) [Example 106, 5-[5-(4-Chlorophenyl)pent-4-ynyl]-5-(4-phenoxybenzenesulfonyl)-thiazolidine-2,4-dione]	1300 to 1700 nM	230 to 250 nM
O=C1NC(=O)C(CCCC#Cc2ccc(Cl)cc2)(S(=O)(=O)c2ccc3ccccc3c2)S1 (stereo not shown) [Example 107, 5-[5-(4-Chlorophenyl)pent-4-ynyl]-5-(naphthalene-2-sulfonyl)-thiazolidine-2,4-dione]	620 to 700 nM	180 to 200 nM
CC(=O)Nc1ccc(S(=O)(=O)C2(CCCC#Cc3ccc(Cl)cc3)SC(=O)NC2=O)cc1 (stereo not shown) [Example 108, N-(4-{5-[5-(4-Chlorophenyl)pent-4-ynyl]-2,4-dioxothiazolidine-5-sulfonyl}phenyl)acetamide]	≥ 9000 nM	130 to 180 nM
O=C1NC(=O)C(CCCC#Cc2ccc(Cl)cc2)(S(=O)(=O)c2ccc([N+](=O)[O-])cc2)S1 (stereo not shown) [Example 110, 5-[5-(4-Chlorophenyl)pent-4-ynyl]-5-(4-nitrobenzenesulfonyl)-thiazolidine-2,4-dione]	7000 nM	400 nM
O=C1NC(=O)C(CCCC#Cc2ccc(Cl)cc2)(S(=O)(=O)c2ccc(OCc3ccccc3)cc2)S1 (stereo not shown) [Example 111, 5-(4-Benzyloxybenzenesulfonyl)-5-[5-(4-chlorophenyl)pent-4-ynyl]-thiazolidine-2,4-dione]	300 to 550 nM	110 to 150 nM
CCCCOc1ccc(S(=O)(=O)C2(CCCC#Cc3ccc(Cl)cc3)SC(=O)NC2=O)cc1 (stereo not shown) [Example 112, 5-(4-Butoxybenzenesulfonyl)-5-[5-(4-chlorophenyl)-pent-4-ynyl]-thiazolidine-2,4-dione]	1400 to 1500 nM	590 to 600 nM
O=C1NC(=O)C(CCCC#Cc2cc(Cl)ccc2Cl)(S(=O)(=O)c2ccc(I)cc2)S1 (stereo not shown) [Example 115, 5-[5-(2,5-Dichloro-phenyl)pent-4-ynyl]-5-(4-iodobenzenesulfonyl)-thiazolidine-2,4-dione]	160 to 230 nM	12 to 320 nM
COc1ccc(S(=O)(=O)C2(CCCC#Cc3ccc(-n4cccc4)cc3)SC(=O)NC2=O)cc1 (stereo not shown) [Example 161, 5-(4-Methoxybenzenesulfonyl)-5-[5-(4-pyrrol-1-yl-phenyl)pent-4-ynyl]-thiazolidine-2,4-dione]	–	900 nM
O=C1NC(=O)C(CCCC#Cc2ccc(-n3cccc3)cc2)(S(=O)(=O)c2ccc(OC(F)(F)F)cc2)S1 (stereo not shown) [Example 163, 5-[5-(4-Pyrrol-1-ylphenyl)pent-4-ynyl]-5-(4-trifluoromethoxybenzenesulfonyl)-thiazolidine-2,4-dione]	–	1300 nM
COc1ccc(S(=O)(=O)C2(CC#Cc3cccnc3)SC(=O)NC2=O)cc1 (stereo not shown) [Example 167, 5-(4-Methoxybenzenesulfonyl)-5-(3-pyridin-3-ylprop-2-ynyl)-thiazolidine-2,4-dione]	–	1500 nM
Cc1ccc(S(=O)(=O)C2(CC#Cc3cccs3)SC(=O)NC2=O)cc1 (stereo not shown) [Example 168, 5-(3-Thiophen-2-yl-prop-2-ynyl)-5-(toluene-4-sulfonyl)-thiazolidine-2,4-dione]	–	280 nM
COc1ccc(S(=O)(=O)C2(CCCC#Cc3ccc(Cl)cc3)SC(=O)N(CCCn3ccnc3)C2=O)cc1 (stereo not shown) [Example 233, 5-[5-(4-Chlorophenyl)pent-4-ynyl]-3-(3-imidazol-1-yl-propyl)-5-(4-methoxybenzenesulfonyl)-thiazolidine-2,4-dione]	–	2900 nM

Further lines, results first:

IC50 [1]	IC50 [2]	Compound
20 to 220 nM	1 to 32 nM	5-[5-(2-Methyl-4-nitrophenyl)pent-4-ynyl]-5-[4-(pyridin-4-yloxy)-benzenesulfonyl]-thiazolidine-2,4-dione [Example 128]
300 to 340 nM	21 to 32 nM	5-[5-(4-Chloro-2-methylphenyl)-pent-4-ynyl]-5-(4-iodobenzene-sulfonyl)-thiazolidine-2,4-dione [Example 141]
33 nM	3.3 nM	COc1ccc(S(=O)(=O)C2(CCCC#Cc3cc(NC(=O)OC(C)(C)C)ccc3C)SC(=O)NC2=O)cc1 (single isomer, unassigned; less polar) [Example 222, Enantiomer of(3-{5-[5-(4-Methoxybenzenesulfonyl)-2,4-dioxothiazolidin-5-yl]pent-1-ynyl}-4-methylphenyl)carbamic Acid tert-Butyl Ester (less polar)]
> 1000 nM	63 nM	COc1ccc(S(=O)(=O)C2(CCCC#Cc3cc(NC(=O)OC(C)(C)C)ccc3C)SC(=O)NC2=O)cc1 (single isomer, unassigned; more polar) [Example 223, Enantiomer of(3-{5-[5-(4-Methoxybenzenesulfonyl)-2,4-dioxothiazolidin-5-yl]pent-1-ynyl}-4-methylphenyl)carbamic Acid tert-Butyl Ester (more polar)]
110 to 1000 nM	10 to 30 nM	COc1ccc(S(=O)(=O)C2(CCCC#Cc3ccccc3Cl)SC(=O)NC2=O)cc1 (stereo not shown) [Example 101, 5-[5-(2-Chlorophenyl)pent-4-ynyl]-5-(4-methoxybenzenesulfonyl)-thiazolidine-2,4-dione]
1400 nM	30 to 32 nM	COc1ccc(S(=O)(=O)C2(CCCC#Cc3cccc(Cl)c3)SC(=O)NC2=O)cc1 (stereo not shown) [Example 102, 5-[5-(3-Chlorophenyl)pent-4-ynyl]-5-(4-methoxybenzenesulfonyl)-thiazolidine-2,4-dione]
900 to 10000 nM	30 to 50 nM	Cc1ccc(S(=O)(=O)C2(CCCC#Cc3ccc(Cl)cc3)SC(=O)NC2=O)cc1 (stereo not shown) [Example 103, 5-[5-(4-Chlorophenyl)pent-4-ynyl]-5-(p-tolylsulfonyl)-thiazolidine-2,4-dione]
230 to 900 nM	30 to 54 nM	O=C1NC(=O)C(CCCC#Cc2ccc(Cl)cc2)(S(=O)(=O)c2ccc(I)cc2)S1 (stereo not shown) [Example 104, 5-[5-(4-Chlorophenyl)pent-4-ynyl]-5-(4-iodobenzenesulfonyl)-thiazolidine-2,4-dione]
1500 to 1700 nM	50 to 150 nM	O=C1NC(=O)C(CCCC#Cc2ccc(Cl)cc2)(S(=O)(=O)c2ccc(F)cc2)S1 (stereo not shown) [Example 105, 5-[5-(4-Chlorophenyl)pent-4-ynyl]-5-(4-fluorobenzenesulfonyl)-thiazolidine-2,4-dione]
1400 to 2100 nM	65 to 130 nM	O=C1NC(=O)C(CCCC#Cc2ccc(Cl)cc2)(S(=O)(=O)c2cccc3cccnc23)S1 (stereo not shown) [Example 109, 5-[5-(4-Chlorophenyl)pent-4-ynyl]-5-(quinoline-8-sulfonyl)-thiazolidine-2,4-dione]
750 to 800 nM	50 to 60 nM	O=C1NC(=O)C(CCCC#Cc2ccc(Cl)cc2)(S(=O)(=O)c2cccc3ccccc23)S1 (stereo not shown) [Example 113, 5-[5-(4-Chlorophenyl)pent-4-ynyl]-5-(naphthalene-1-sulfonyl)-thiazolidine-2,4-dione]
17 to 40 nM	5 to 10 nM	O=C1NC(=O)C(CCCC#Cc2cc(Cl)ccc2Cl)(S(=O)(=O)c2ccc(Oc3ccncc3)cc2)S1 (stereo not shown) [Example 116, 5-[5-(2,5-Dichlorophenyl)pent-4-ynyl]-5-[4-(pyridin-4-yloxy)benz-enesulfonyl]-thiazolidine-2,4-dione]
510 to 1000 nM	20 to 30 nM	COc1ccc(S(=O)(=O)C2(CCCC#Cc3ccc(Cl)cc3Cl)SC(=O)NC2=O)cc1 (stereo not shown) [Example 117, 5-[5-(2,4-Dichlorophenyl)pent-4-ynyl]-5-(4-methoxybenzenesulfonyl)-thiazolidine-2,4-dione]
1900 nM	70 nM	COc1ccc(S(=O)(=O)C2(CCCC#Cc3cccc([N+](=O)[O-])c3)SC(=O)NC2=O)cc1 (stereo not shown) [Example 118, 5-(4-Methoxybenzenesulfonyl)-5-[5-(3-nitrophenyl)pent-4-ynyl]-thiazolidine-2,4-dione]
1300 to 1700 nM	130 to 140 nM	O=C1NC(=O)C(CCCC#Cc2cccc([N+](=O)[O-])c2)(S(=O)(=O)c2ccc(Oc3ccccc3)cc2)S1 (stereo not shown) [Example 119, 5-[5-(3-Nitrophenyl)pent-4-ynyl]-5-(4-phenoxybenzenesulfonyl)-thiazolidine-2,4-dione]
530 to 1000 nM	18 to 32 nM	O=C1NC(=O)C(CCCC#Cc2ccc([N+](=O)[O-])cc2)(S(=O)(=O)c2ccc(I)cc2)S1 (stereo not shown) [Example 120, 5-(4-Iodobenzenesulfonyl)-5-[5-(4-nitrophenyl)pent-4-ynyl]-thiazolidine-2,4-dione]
1600 nM	120 nM	COc1ccc(S(=O)(=O)C2(CCCC#Cc3ccc([N+](=O)[O-])cc3)SC(=O)NC2=O)cc1 (stereo not shown) [Example 121, 5-(4-Methoxybenzenesulfonyl)-5-[5-(4-nitrophenyl)pent-4-ynyl]-thiazolidine-2,4-dione]
